Patent US7544497B2, “Compositions for manipulating the lifespan and stress response of cells and organisms” (President and Fellows of Harvard College, priority 2003, dated 2009)

Experiments:
[1] = D. melanogaster body mass; format: in vivo; settings: 10 μM, 15% SY diet
Protocol: Feeding rate was measured in yw females with the crop-filling assay^27. […] The presence of dye-marked food in the crop was scored in sets of 20 females across five 5-minute intervals. […] Males and females were weighed daily.

[2] = tested on: D. melanogaster; assay: D. melanogaster adult survival assay; format: in vivo
Protocol: Survival assays were conducted independently with adult D. melanogaster in two laboratories. In the first laboratory, all trials used an yw marked wild-type strain. […] Newly eclosed adults were placed in 1L demography cages with approximately 75 males and 75 females. Three to four replicate 1L demography cages were used for each treatment group in each trial. Every two days, dead flies were removed and scored, and food vials were replenished. Food vials contained cornmeal-sugar-yeast diet with SAF yeast as either 2% or 3% by weight. […] Fresh stock solutions and adult media were prepared weekly. In the second laboratory, lifespan trials were conducted with the wild type strain Canton-S, dSir2^4.5 and […], University of Oregon), […], Stockholm University, Sweden), and dSir2^KG00871 (Drosophila Stock Center, Bloomington, Ind.). Larvae for all tests were reared on standard cornmeal-sugar-yeast diet. […] In all trials, 20 males with 20 females were placed into each of 10 vials/treatment group. Every two days, flies were passed into new vials and dead flies were counted. […] Fresh stock solution and adult media was prepared weekly.

[3] = target: T1, recombinant human SIRT1 (Homo sapiens, UniProt Q96EB6); assay: SIRT1 fluorescent deacetylation assay (p53-382 acetylated peptide substrate); format: biochemical; settings: 100 μM resveratrol
T1 sequence (Q96EB6 1-747): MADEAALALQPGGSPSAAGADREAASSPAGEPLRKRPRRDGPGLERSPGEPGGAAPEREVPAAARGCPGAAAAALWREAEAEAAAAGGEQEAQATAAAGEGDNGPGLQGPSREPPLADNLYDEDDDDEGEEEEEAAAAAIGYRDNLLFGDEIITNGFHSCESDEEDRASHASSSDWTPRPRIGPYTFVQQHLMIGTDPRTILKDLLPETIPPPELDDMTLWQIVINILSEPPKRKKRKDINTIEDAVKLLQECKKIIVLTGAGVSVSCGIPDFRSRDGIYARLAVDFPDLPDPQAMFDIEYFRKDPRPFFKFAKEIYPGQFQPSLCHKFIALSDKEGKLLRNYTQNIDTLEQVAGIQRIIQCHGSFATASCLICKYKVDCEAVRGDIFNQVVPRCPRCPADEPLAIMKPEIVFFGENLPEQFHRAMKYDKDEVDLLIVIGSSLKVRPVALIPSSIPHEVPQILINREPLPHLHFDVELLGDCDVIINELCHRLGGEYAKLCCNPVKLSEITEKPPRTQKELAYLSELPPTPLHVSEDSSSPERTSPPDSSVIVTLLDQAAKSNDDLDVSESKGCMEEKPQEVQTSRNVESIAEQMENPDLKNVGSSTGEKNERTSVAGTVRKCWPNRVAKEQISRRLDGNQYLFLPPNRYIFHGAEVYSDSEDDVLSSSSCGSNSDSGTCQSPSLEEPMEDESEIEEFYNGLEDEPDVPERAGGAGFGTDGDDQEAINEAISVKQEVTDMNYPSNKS
Description: To identify compounds that modulate SIRT1 activity, we screened a number of small molecule libraries using a fluorescent deacetylation assay in 96-well plates^26. The substrate used in the assay was a fluorogenic peptide based on the sequence encompassing the p53-K382 acetylation site, a known target of SIRT1 in vivo^20,21,27. This substrate was preferred over a variety of other fluorogenic peptide substrates that were based on other known HDAC targets (FIG. 5). The small molecule libraries included analogues of nicotinamide, ε-acetyl lysine, NAD^+, nucleotides, nucleotide analogues and purinergic ligands. From the initial screen, several sirtuin inhibitors were found (Supplementary Table 7). However, the most striking outcome was the identification of two compounds, quercetin and piceatannol, that stimulated SIRT1 activity five and eight-fold, respectively (Table 1). Both quercetin and piceatannol have been previously identified as protein kinase inhibitors^28,29.
His6-tagged recombinant SIRT1 and GST-tagged recombinant Sir2 were prepared as previously described^26. From 0.1 to 1 μg of SIRT1 and 1.5 μg of Sir2 were used per deacetylation assay (in 50 μl total reaction) as previously described^26. SIRT1 assays and certain of those for Sir2 employed the p53-382 acetylated substrate (‘Fluor de Lys-SIRT1’, BIOMOL) rather than FdL.
Themed compound libraries (BIOMOL) were used for primary and secondary screening. […] For water soluble compounds and negative controls, 1% v/v DMSO was added to the assay. […] HeLa cells were grown and the cellular deacetylation assays were performed and read, as above, but in full-volume 96-well microplates (Corning Costar 3595). Unless otherwise indicated all initial rate measurements were means of three or more replicates, obtained with single incubation times, at which point 5% or less of the substrate initially present had been deacetylated. Calculation of net fluorescence increases included subtraction of a blank value, which in the case of Sir2 was obtained by omitting the enzyme from the reaction and in the case of SIRT1 by adding an inhibitor (200 μM suramin or 1 mM nicotinamide) to the reaction prior to the acetylated substrate. […] All error bars represent the standard error of the mean.
All SIRT1 rate measurements used in the calculation of “Ratio to Control Rate” were obtained with 25 μM NAD^+ and 25 μM p53-382 acetylated peptide substrate were performed as described above and in K. T. Howitz et al. Nature (2003) 425: 191. All ratio data were calculated from experiments in which the total deacetylation in the control reaction was 0.25-1.25 μM peptide or 1-5% of the initial concentration of acetylated peptide.

## Oc1ccc(/C=C/c2cc(O)cc(O)c2)cc1 [Resveratrol, 3,5,4′-Trihydroxy-trans-stilbene]
[1]
  body weight: normal weight
[2]; Canton-S/dSir2^KG0087
  lifespan increase (up to): up to 17%
[2]; dSir2^4.5/dSir2^5.26 or dSir2^17/dSir2^KG00871, 100 μM
  lifespan in flies lacking or severely decreased in dSir2: failed to extend lifespan
[2]; dSir2^KG0087/dSir2^KG0087
  longevity increase in flies homozygous for a hypomorphic dSir2 allele: small but statistically significant amount
[2]; restricted diet
  longevity on restricted diet: neither resveratrol nor fisetin further increased longevity
[2]; wild type, males and females, independent tests
  lifespan extension (up to): up to 29%
[3]; 1 mM p53-382 acetylated peptide, control 1863
  Vmax (+resveratrol), NAD+ varied: 1749 AFU/min.
[3]; 3 mM NAD+, control 1107
  Vmax (+resveratrol), p53-382 acetylated peptide varied: 926 AFU/min.
